Measured values: PMC7376718, “Flavonoids isolated from the South African weed Chromolaena odorata (Asteraceae) have pharmacological activity against uropathogens” (BMC Complementary Medicine and Therapies, 2020)
In brackets after ≈: the same amount, converted by molar mass. Where two headings read alike, the source gives them in different places.

Columns and labels:
[1] = system: Aspergillus fumigatus from a chicken; experiment: MIC, serial microdilution with INT; format: cell-based; conditions: Aspergillus fumigatus, read-out: Minimum inhibitory concentration
Description: (§1) The cultures used were Escherichia coli (American Type Culture Collection, ATCC 25922) labelled as 1, E. coli isolates (B1989/17 and B1962/17) labelled as 2 and 3 from equine urine, collected from the Department of Veterinary Tropical Diseases, Faculty of Veterinary Science, University of Pretoria, South Africa, Klebsiella pneumoniae isolate from commercial chicken eggs, Enterococcus faecalis (ATCC 29212), Pseudomonas aeruginosa (ATCC 27853), Staphylococcus aureus (ATCC 29213), Candida albicans from a Gouldian finch, Aspergillus fumigatus from a chicken and Cryptococcus neoformans from a cheetah. These microbial strains were maintained on MHA or SDA for bacteria and fungi respectively, while the isolates were maintained on blood agar.
(§2) Ten mg/mL of each fraction and 1 mg/mL of isolated compounds were prepared in 10% DMSO and tested against S. aureus, E. coli, K. pneumoniae, E. faecalis, P. aeruginosa, C. albicans, C. neoformans and A. fumigatus. Cultures were prepared by inoculating each microbial strain from prepared agar plates into sterilized MHB for bacterial and SDB for fungi in sterile McCartney bottles respectively. The inoculums were placed in an orbital shaker incubator. Bacterial strains were incubated at 37 °C for 18 h. Each bacterial culture was diluted in fresh MHB and the absorbance was measured at a wavelength of 560 nm using a microplate reader (Epoch Biotek). The readings were compared to a McFarland standard No. 1 correlating to approximately 3 × 10^8 cfu/mL). For fungi strains, cultures were incubated at 30 °C for 24 h (C. albicans), 72 h (C. neoformans) and 120 h (A. fumigatus) respectively. The resultant cells and spores were washed with sterile normal saline and absorbance was measured at a wavelength of 560 nm and turbidity was adjusted to a McFarland standard 1.This was further diluted in a 1:10 ratio in SDB to a turbidity of 5 × 10^5 cfu/mL. These diluted cultures (bacterial and fungi) were used for the screening following the serial microdilution method of Eloff.

[2] = system: E. coli (B1962/17) isolate from equine urine, E. coli (3); experiment: MIC, serial microdilution with INT; format: cell-based; conditions: Escherichia coli, read-out: Minimum inhibitory concentration
Description: as §1, §2

[3] = system: E. coli (B1989/17) isolate from equine urine, E. coli (2); experiment: MIC, serial microdilution with INT; format: cell-based; conditions: Escherichia coli, read-out: Minimum inhibitory concentration
Description: as §1, §2

[4] = system: Escherichia coli (ATCC 25922), E. coli (1); experiment: MIC, serial microdilution with INT; format: cell-based; conditions: Escherichia coli, ATCC25922, E. coli (1), read-out: Minimum inhibitory concentration
Description: as §1, §2

[5] = system: Klebsiella pneumoniae isolate from commercial chicken eggs; experiment: MIC, serial microdilution with INT; format: cell-based; conditions: Klebsiella pneumoniae, K. pneumoniae; read-out: Minimum inhibitory concentration
Description: as §1, §2

[6] = system: Staphylococcus aureus (ATCC 29213); experiment: MIC, serial microdilution with INT; format: cell-based; conditions: ATCC29213, S. aureus, read-out: Minimum inhibitory concentration
Description: as §1, §2

[7] = system: E. coli (ATCC 25922) biofilm; experiment: Biofilm inhibition, crystal violet staining; format: cell-based, Escherichia coli; conditions: planktonic (0 h) and biofilm (24 h) stages, 1 mg/mL and MIC level
Protocol: A single colony of E. coli (ATCC 25922) and S. aureus (ATCC 29213), strains were each inoculated into TSB and incubated for 24 h. The biofilm inhibition assay was carried out by adopting the method described by […] et al.. Two stages; planktonic, T0 and biofilm formation, T24 were investigated against the 24 h prepared bacterial cultures. One hundred microliters of each standardised bacterial culture (OD590 1 × 10^6 cfu/mL) was aliquoted into wells of a sterile flat bottomed 96-well microplate. Plates prepared for 24 h biofilm formation were immediately sealed with an adhesive sealer, placed in the incubator and incubated for 24 h at 37 °C. […] To the plates prepared for 0 h, the samples were added immediately. Wells containing cultures only, as well as acetone and sterile distilled water used to prepare the samples were included as controls. […] From the wells, 100 μL of the destaining solution was transferred to a new plate and semi-quantitative assessment of biofilm formation was done by measuring absorbance at 590 nm using SoftMax […] software on a microplate reader (SpectraMax M2). The mean absorbance of the samples was determined, and percentage inhibition was obtained using the equation below: percentage inhibiton=mean of culture control-mean of sample/mean of culture controlx100

[8] = system: E. coli; experiment: Metabolic activity inhibition (INT); format: cell-based, Escherichia coli
Protocol: The ability of the isolated compounds to inhibit the bacterial metabolic activity was tested against E. coli and S. aureus following the method used by Ramage and Lopez-Ribot with slight modification. The organisms were inoculated in a 96-well microplate following the same biofilm assay procedure described above. The final concentration of each compound in the wells was 0.016 mg/mL, 0.031 mg/mL, 0.063 mg/mL, 0.125 mg/mL and 1 mg/mL respectively. After 24 h of incubation with samples, the plates were washed three times with sterile distilled water and 50 μL of 1 mg/mL INT was added to each well and further incubated in the dark for 2 h. After incubation, absorbance was read at 490 nm using a microplate reader and the percentages of reduction of bacterial metabolic activity in the presence of different concentrations of compounds were calculated using the formula:
percentage inhibiton=mean of culture control−mean of sample/mean of culture controlx100

[9] = system: E. coli; experiment: Cell adhesion to BSA-coated polystyrene surface; format: cell-based, Escherichia coli; conditions: 1 mg/mL, polystyrene microplate
Protocol: (§3) Anti-adhesion activity of isolated compounds was determined using the method of Namasivayam and Vivek with slight modification. To a sterile 96-well flat-bottomed polystyrene microtititre plate, 150 μL of freshly prepared 1% lyophilized powdered globular protein BSA, dissolved in water was added to all wells except for the wells allocated for media only. The plates were incubated for 30 min at 30 °C. Following incubation the wells were washed three times with PBS. To the wells, 50 μL of bacterial cultures equivalent to 1 × 10^6 cfu/mL read at 590 nm, prepared from overnight cultures were added. […] The seeded microtitre plates were incubated for 24 h at 37 °C. Non-adhered cells were washed five times with PBS at room temperature. Adhered cells were stained by the addition of 50 μL of 0.1% crystal violet and further incubation for a further 30 min at room temperature. Afterwards, wells were washed with sterile distilled water to remove excess stain followed by the addition of 10 μL of absolute ethanol to fix the adhered cells. Finally, 50 μL of 0.2% Triton X was added to the wells to lyse the cells and the absorbance was read at 570 nm using a microplate reader. Percentage adherence inhibition was calculated using the formula above.

[10] = system: S. aureus; experiment: Cell adhesion to BSA-coated polystyrene surface; format: cell-based, Staphylococcus aureus; conditions: 1 mg/mL, polystyrene microplate
Protocol: as §3

SMILES | MIC ([1]; 48 h) [µg/mL] | MIC ([1]; 72 h) [µg/mL] | MIC ([1]; 120 h) [µg/mL] | MIC [2] [µg/mL] | MIC [3] [µg/mL] | MIC [4] [µg/mL] | MIC [5] [µg/mL] | MIC [6] [µg/mL] | Biofilm inhibition (verdict in words) [7] | Metabolic activity inhibition (verdict in words) [8] | Adherence inhibition (verdict in words) [9] | Adherence inhibition (verdict in words) [10]
COc1ccc(-c2oc3cc(OC)cc(O)c3c(=O)c2OC)cc1 [Compound 3, 5-hydroxy-3,7,4′-trimethoxyflavone] | 31 (≈ 94.4 µM) | 250 (≈ 761 µM) | > 2500 | 250 (≈ 761 µM) | 250 (≈ 761 µM) | 63 (≈ 192 µM) | 125 (≈ 381 µM) | 16 (≈ 48.7 µM) | good and good activity and good inhibitory activity | good | weak | weak
COc1ccc(C2CC(=O)c3c(OC)cc(OC)cc3O2)cc1 (racemic) [Compound 2, (±)-4′,5,7-trimethoxy flavanone] | 16 (≈ 50.9 µM) | 125 (≈ 398 µM) | > 2500 | 31 (≈ 98.6 µM) | 31 (≈ 98.6 µM) | 31 (≈ 98.6 µM) | 125 (≈ 398 µM) | 31 (≈ 98.6 µM) | good and good activity and good inhibitory activity | good | weak | weak
